Where no end group is shown, it is not given here.
Key:
[1] = test system: cerebellar cells; test: Cerebellar microexplant proliferation assay (BrdU); type: cell-based, Wistar rat
Method: Laminated cerebellar cortices of the two hemispheres were explanted from a P3, P4, P7 or P8 Wistar rat, cut into small pieces in GBSS with 0.65% D(+)glucose solution, and triturated by a 0.4 mm gauge needle and subsequently pressed through a 125 μm pore size sieve. The obtained microexplants were centrifuged (60×g) 2 times for a medium exchange into serum-free BSA-supplemented START V-medium (Biochrom). Finally, the microexplants were reconstituted in 500 μl STARTV-medium. For culturing, 38 μl of the cell suspension was incubated for 1 hour on a poly-D-lysine-coated cover slip in a 35 mm Petri dish under an atmosphere comprising 5% CO2 in air and 100% humidity at 34° C. Subsequently, the injuring toxins (as described below), NRPs and 1 ml of STARTV-medium were added, and the cultures were evaluated after 2-3 days of culture.
Toxicological and drug administration experiments were designed such that 1/100 parts of toxin and neuroprotective drug were administered simultaneously to the freshly prepared cerebellar microexplants. Glutamate was prepared as a 50 mM stock solution in MilliQ water while 50 mM 3-nitropropionic acid was pH-adjusted (pH 6.8-7.2) in MilliQ water. The concentrations of the oxidative stress inducing toxin, 3-nitropropionic acid (3-NP), and the excitotoxin, glutamate, in the assay were 0.5 mM each. Lyophilized peptides were reconstituted in PBS or 100 μg/ml human transferrin as a 10 μM stock solution. Subsequently, serial dilutions were made. Cerebellar microexplants were cultivated for 48-72 hours at 34° C., 5% CO2 in air and 100% humidity before they were fixed by increasing amounts of paraformaldehyde (0.4%, 1.2%, 3% and 4%—each treatment 2-3 min).
Using the toxins described above, cerebellar explants were exposed for 24 hours, at the beginning of culturing to dilutions of NRP (survival assay) or NRP and 0.1 μM BrdU (proliferation assay). Subsequently, 80% of the medium was changed without addition of new toxins and NRPs. […]
For statistical analysis of proliferation BrdU-positive nuclei were counted. Statistical significance was measured by Student's t-test.

[2] = test system: mouse neural stem cells (MEB-5 cells); test: Haptotactic migration assay, physiological (injury-free) conditions; type: cell-based; conditions: 0.1 ng/ml NRP coating
Method: An NRP was tested for migration-inducing/chemoattractive activity on mouse neural stem cells in a haptotactic migration assay as described below.
Control wells of Transwell plates (Corning) with 12 μm pore size were coated in 1.5 ml of the BSA/PBS vehicle. Remaining plates were coated using 0.1 ng/ml of NRP (SEQ ID NO: 1) (prepared in PBS containing 10 ug/ml BSA).
Laminin (7 μg/ml) was used as extracellular matrix (ECM) coating for mouse primary stem cells. The matrix was incubated at 37° C.; 5% C02 for 2 hrs at room temperature. The cells were seeded onto the inserts (30,000 cells per well). Plates were fixed at 1-2 days in vitro (DIV).
A 5 ug/mL PDL/PLL mixture (in PBS) was used to coat inserts. Subsequently the inserts were rinsed with MilliQ water.
Inserts were discarded and wells fixed in successive dilutions of PFA (0.4, 1.2, 3 and 4%) for 3-5 min in each dilution. […] The wells were rinsed and stored in PBS until counting.

[3] = test system: human primary trophoblasts; test: Trophoblast haptotactic migration (Boyden chamber) assay; type: cell-based; conditions: 0.1 ng/ml coating, 100 fM in inserts; 22 hrs
Method: Human trophoblast cells were isolated from term placentas with prior approval by the Ethics Committee of the University of Auckland and consent of the patients. The maternal decidua was removed, exposing the villous interior of the placenta. Pieces of villous tissue were cut out and washed thoroughly with PBS before digestion using 0.25% trypsin. The digest was then diluted in Locke Ringers Buffer and DNAase I. Digestion of connective tissue surrounding the placental cells was carried out while stirring the mixture with a magnetic stirrer at a temperature of 37° C. The process was repeated 8 times, with the last 6 supernatants being collected in a bottle containing fetal bovine serum (FBS). The digestion step produced a heterogeneous dispersed cell preparation. The pooled supernates was centrifuged for 7 minutes at 1200 rpm. The cell pellet was resuspended in PBS and centrifuged. […]
Cells were then purified using a percoll gradient (5, 20, 30, 35, 40, 50 and 60%). […] This band was collected, the cells washed in M199 medium centrifuged and finally counted and plated according to the methods of Keelan et al, 1998. […]
Under control conditions, the bottom of the chamber is not pre-coated with a putative chemoattractive agent. […] Thus, the number of migratory cells can be quantified. […]

Substance: REGRRAAPGRAGG-NH2 (listed as Homo sapiens) [SEQ ID NO: 1, 13-mer NRP analogue]
- proliferation rate compared to the uninjured vehicle ([1]; 1 pM, BrdU): increased the proliferation rate in these cultures significantly
- proliferation compared against injured cells without NRP ([1]; p<0.01, SEQ ID NO: 1 at 1 pM, SEQ ID NO: 2 at 100 pM): highly proliferation-inducing
- more cells migrating in comparison with BSA-vehicle [2]: 55.4%
- increase of migratory cells [3]: 95%
